IC50 data for eight compounds are collected here from US5059590A, “Imidazole derivatives, process for production thereof, and use thereof” (Yamasa Shoyu Kabushiki Kaisha, priority 1988, dated 1991).

For orientation: IC50 means the point on the concentration scale where inhibition reaches its midpoint.

Common to all, as to assay type: cell-based
In test [1] the test system is Mouse lymphoma cell line P388. The experiment in a line: In vitro anti-proliferative activity against mouse tumor cell lines, Test Method 2 (P388). As to conditions: P388, 48 hours, 37° C. The protocol:
(§1) In vitro anti-proliferative activity against mouse tumor cell lines
(§2) 1. Mouse lymphoma cell line P388 or mouse sarcoma 180 is suspended in RPMI1640 medium supplemented with 10% fetal bovine serum and 2 μM 2-hydroxyethyl disulfide to a concentration of 10^5 cells/ml. Test compounds are serially diluted with the same medium.
(§3) 2. 0.5 ml of the cell suspension thus obtained is admixed with 0.5 ml of the medium or the test compound solution, and the mixture is incubated in a 5% CO2 -incubator at 37° C. for 48 hours. The incubation is carried out in glass culture tubes.
(§4) 3. At the end of incubation, the number of the cells in each tube is counted with a Coulter counter (Model ZB, Coulter Electronics), and the growth inhibition percent (%) is calculated from the same equation as in Test Method 1.
(§5) 4. The IC50 value is obtained as in Test Method I.

In test [2] the test system is L1210 mouse leukemia cells. The experiment in a line: In vitro anti-proliferative activity against mouse tumor cell lines, Test Method 1 (L1210). As to conditions: L1210, 48 hours, 37° C. The protocol:
as §1
1. L1210 mouse leukemia cells are cultivated in RPMI1640 medium supplemented with 10% fetal bovine serum, and the resultant cells are diluted with the same medium in the logarithmic growth phase to a concentration of 1.6×10^5 cells/ml.
2. To test tubes each containing 0.9 ml of the above obtained diluted cell suspension is added 0.1 ml each of test solutions serially diluted with a culture medium or phosphate-buffered saline (PBS), and the mixture is incubated in a 2% CO2 -incubator at 37° C. for 48 hours.
3. After incubation, the number of the cells in each tube is counted with a Coulter counter (Model ZB, Coulter Electronics), and the growth inhibition percent (%) of the cells at each concentration of a test compound is calculated from the following equation: [formula] Tx: Number of the cells in a test tube containing a test compound as counted upon completion of the incubation (cells/ml)
Cx: Number of the cells in a test tube containing no test compound as counted upon completion of the incubation (cells/ml)
Co: Number of the cells in a test tube containing no test compound as counted at the initiation of the incubation (cells/ml)
4. The concentration of the test compound, which causes cell growth inhibition by 50%, is determined by the graph showing the relationship between the growth inhibition percent and the concentration of the test compound, and is defined as 50% inhibitory concentration (IC50).

A further test relates to mouse sarcoma 180. The experiment in a line: In vitro anti-proliferative activity against mouse tumor cell lines, Test Method 2 (sarcoma 180). As to conditions: Sarcoma 180, 48 hours, 37° C. On the procedure:
as §1, §2, §3, §4, §5

Values after ≈ are worked out from the molar mass of the structure shown.

For `C#Cc1[nH]cnc1C(N)=O` [5-ethynylimidazole-4-carboxamide], the half-maximal inhibitory concentration (IC50) in test [1] amounted to 4.37 µg/mL (≈ 32.3 µM); in test [2], 4 µg/mL (≈ 29.6 µM); in the test with mouse sarcoma 180, 1.39 µg/mL (≈ 10.3 µM).

`N#Cc1ncn([C@@H]2O[C@H](CO)[C@@H](O)[C@H]2O)c1C#CCO` [R = [drawing 28]; A = CN; R^1 = CH2 OH, 5-(3-Hydroxy-1-propyn-1-yl)-1-β-D-ribofuranosylimidazole-4-carbonitrile]: the IC50 in test [2] was determined as 4.1 µg/mL (≈ 14.7 µM).

Turning to `NC(=O)c1ncn([C@@H]2O[C@H](CO)[C@@H](O)[C@H]2O)c1C#CCCO` [5-(4-hydroxy-1butyn-1-yl)-1β-D-ribofuranosylimidazole-4-carboxamide], the midpoint of inhibition in test [2], the IC50, lay at 1.28 µg/mL (≈ 4.11 µM).

`N#Cc1ncn([C@@H]2O[C@H](CO)[C@@H](O)[C@H]2O)c1C#CCCO` [R = [drawing 28]; A = CN; R^1 = CH2 CH2 OH, 5-(4-hydroxy-1-butyn-1yl)-1-β-D-ribofuranosylimidazole-4-carbonitrile]: in test [2], the concentration for half-maximal inhibition (IC50) was 3.3 µg/mL (≈ 11.3 µM).

As for `NC(=O)c1ncn([C@@H]2O[C@H](CO)[C@@H](O)[C@H]2O)c1C#CCO` [R = [drawing 28]; A = CONH2; R^1 = CH2 OH, 5-(3-Hydroxy-1-propyn-1-yl)-1-β-D-ribofuranosylimidazole-4-carboxamide], in test [2], the IC50 came to 0.7 µg/mL (≈ 2.35 µM).

As to `C#Cc1c(C#N)ncn1[C@@H]1O[C@H](CO)[C@@H](O)[C@H]1O` [5-ethynyl-1-β-D-ribofuranosylimidazole-4-carbonitrile], the IC50 in test [1] was found to be 0.93 µg/mL (≈ 3.73 µM); in test [2] it was 1.9 µg/mL (≈ 7.62 µM); with mouse sarcoma 180, 0.8 µg/mL (≈ 3.21 µM).

For the compound `CCCC#Cc1c(C(N)=O)ncn1[C@@H]1O[C@H](CO)[C@@H](O)[C@H]1O` [R = [drawing 28]; A = CONH2; R^1 = C3, 5-(1-pentyn-1-yl)-1-β-D-ribofuranosylimidazole-4-carboxamide], in test [2], the midpoint of inhibition, the IC50, lay at 2.92 µg/mL (≈ 9.44 µM).

As to `C#Cc1[nH]cnc1C#N` [5-ethynylimidazole-4-carbonitrile], the IC50 in test [1] came out at 14.1 µg/mL (≈ 120 µM); in test [2], 2.9 µg/mL (≈ 24.8 µM); with mouse sarcoma 180 it was 9.92 µg/mL (≈ 84.7 µM).
